“Also recorded” adds a separate entry of the source. Square brackets hold non-standard residues; d marks the D form. Peptide text beside a SMILES is read from it. pS = N[C@@H](COP(=O)(O)O)C(=O)O

Test [1] deals with T1, TMEM97 (S2R) containing HEK293T membranes (Homo sapiens, UniProt Q5BJF2).
T1 construct: expressed in transfected cells; host or cells: HEK293T (transient overexpression; membranes prepared by UNC PDSP)
In words: Radioligand binding/competition assay with [3H]-DTG (UNC PDSP). The settings on record: secondary radioligand binding assay; hot ligand [3H]-DTG.

The target of test [2] is T2, Synthetic TMEM97 (144-176) (Homo sapiens, UniProt Q5BJF2).
T2 construct: made in house; host or cells: chemical solid-phase synthesis (Fmoc, Wang resin)
The experiment in a line: Surface plasmon resonance, immobilized synthetic TMEM97 (144-176). The class given is binding. The settings on record: SPR. Here is the method:
(§1) Surface Plasmon Resonance (SPR). Recombinant full-length TMEM97 (also called MAC30, from HEK293 cells) and GST-TMEM97 (108-176, recombinant GST-C terminal from wheat germ) proteins were purchased from OriGene (Rockville, Md.) and Abnova (Taipei City, Taiwan), respectively. Three peptides, TMEM97 (108-176), TMEM97 (108-143) and TMEM97 (144-176), were synthesized. All proteins and peptides were initially prepared in HBS buffer containing 10 mM HEPES, pH 7.4, 150 mM NaCl, and 0.05% surfactant P20. The CM5 sensor surface was first activated by 1-ethyl-3-(3-dimethylaminopropyl) carbodiimide hydrochloride (EDC)/N-hydroxy succinimide (NHS) mixture using a Biacore T200 or Biacore 8K instrument (GE Healthcare). […] Flow channels 1 and 3 were used as references.
(§2) The three synthesized peptides were diluted to 50 μg/mL in 10 mM sodium acetate at pH 4.0 and immobilized to flow channels 2, 3 and 4, respectively, on another sensor chip. The unmodified surfaces on a flow channel 1 were used as a reference control. Histatin solutions with a series of increasing concentrations (0.78-25 μM at 2-fold dilution) were applied to all four channels at a 30 μL/minute flow rate at 25° C. The data were double-referenced with reference channel and zero concentration responses, and reference subtracted sensorgrams were fitted with 1 to 1 Langmuir kinetic model using a Biacore T200 evaluation software V3.0 or Insight evaluation software. The equilibrium dissociation constants ([…]) were determined from two rate constants (KD=kd/ka).
(§3) To determine more precisely which segment of TMEM97 is necessary for binding of Hst1, multiple synthetic fragments of TMEM97 were generated (Table 6) and binding to Hst1 was tested using SPR. […] Smaller fragments of the C-terminal of TMEM97 were then constructed to represent the (predicted) luminal (108-143) and cytoplasmic (144-176) exposed segments of the C-terminus of TMEM97 based on modeling experiments previously described. […] SPR results for Hst1 were confirmed using ITC as an orthogonal analytical method.
(§4) To determine the region(s) of Hst1 that mediate binding to TMEM97, SPR testing was performed with various Hst1 fragments and either recombinant TMEM97 (GST-tagged, wheat-germ derived, C-terminal fragment TMEM97 (108-176)) or synthesized TMEM97 (TMEM97 (108-176), TMEM97 (108-143) and TMEM97 (144-176)).
Background: In SPR one partner is held on a chip, and binding of the other changes the refractive index at the surface.

For test [3], the system named is Synthetic TMEM97 (144-176). The description is as above. The class given is binding. The settings on record: mutations E170A, E171A and E170A/E171A of TMEM97 (144-176). Here is the method:
as §1, §2, §3, §4

The subject of test [4] is human corneal epithelial (HCE) cells. In words: Boyden chamber cell migration assay. The class given is cell-based. The protocol: Transfection/Knock-Down of TMEM97. Sub-confluent monolayers of HCE cells in grown in 35-mm six-well plates were transfected with reaction mixtures composed of 100 pmol of small interfering RNA (siRNA) to TMEM97 (Santa Cruz Biotechnology; Dallas, Tex.) for 48 hours and 5 μL of transfection reagent sold under the tradename LIPOFECTAMINE® 2000 (Invitrogen; Carlsbad, Calif.) in culture medium sold under the tradename OPTI-MEMO media (Gibco Life Technologies; Grand Island, N.Y.). Complexes were incubated for 20 minutes at 24° C. and then added to cells at 37° C. Incubation was continued for 24 to 48 hours at 37° C. in 5% CO2. Knock-down (KD) of TMEM97 was confirmed by western blot analysis using a rabbit anti-TMEM97 antibody (Novus Bio.; Littleton, Colo.).
Cell Migration Assay. HCE migration assays were performed in a 48-well micro-chemotaxis chamber (Neuro Probe, Inc.; Cabin John, Md.), following the manufacturer's instructions and following a modification of prior reports. Polyester membranes (Neuro Probe, Inc.; Gaithersburg, Md.) with 12 μm pores were used. Cells were incubated with Hst1 for 6 hours, harvested using Versene (Life Technologies, Corp.; Grand Island, N.Y.), resuspended in RPMI-1640 medium (Life Technologies, Corp.; Grand Island, N.Y.) containing 0.5% FBS. The bottom chamber was loaded with RPMI-1640 media containing 2% FBS, and the filter was laid over the media. […]

The subject of another test is NPC1 patient fibroblasts. In words: Gene expression in NPC1 patient fibroblasts. The class given is cell-based, human.
For test [5], the system named is mouse cerebellar tissue (NPC mouse model). The experiment in a line: Lipid levels in Hst1-treated NPC mouse cerebellar tissue. The source says:
In this respect, in addition to reducing the accumulation of cholesterol in liver tissue, histatin peptides may also be used to alter fatty acid and cholesterol metabolism in neuronal tissue thereby reducing changes associated with neurodegeneration.

T2 sequence (Q5BJF2 144-176): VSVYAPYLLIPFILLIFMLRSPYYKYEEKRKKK

In test [1], `CC(C)C[C@H](NC(=O)[C@H](Cc1ccc(O)cc1)NC(=O)[C@H](CC(N)=O)NC(=O)[C@H](CO)NC(=O)CNC(=O)[C@H](Cc1ccc(O)cc1)NC(=O)[C@H](CC(=O)O)NC(=O)CNC(=O)[C@H](Cc1ccc(O)cc1)NC(=O)[C@H](Cc1ccccc1)NC(=O)[C@@H]1CCCN1C(=O)[C@H](Cc1ccccc1)NC(=O)[C@H](CCC(=O)O)NC(=O)[C@H](CCCNC(=N)N)NC(=O)[C@H](Cc1c[nH]cn1)NC(=O)[C@H](CO)NC(=O)[C@H](Cc1c[nH]cn1)NC(=O)[C@H](Cc1c[nH]cn1)NC(=O)[C@H](CCCCN)NC(=O)[C@H](CCC(=O)O)NC(=O)[C@H](Cc1c[nH]cn1)NC(=O)[C@H](Cc1ccccc1)NC(=O)[C@H](CCCCN)NC(=O)[C@H](CCCNC(=N)N)NC(=O)[C@H](CCCNC(=N)N)NC(=O)[C@H](Cc1ccc(O)cc1)NC(=O)CNC(=O)[C@H](Cc1c[nH]cn1)NC(=O)[C@H](Cc1c[nH]cn1)NC(=O)[C@H](CCCNC(=N)N)NC(=O)[C@H](CCCCN)NC(=O)[C@H](CCC(=O)O)NC(=O)[C@H](Cc1c[nH]cn1)NC(=O)[C@H](COP(=O)(O)O)NC(=O)[C@@H](N)CC(=O)O)C(=O)N[C@@H](Cc1ccc(O)cc1)C(=O)N[C@@H](CC(=O)O)C(=O)N[C@@H](CC(N)=O)C(=O)O` [Hst1] (H-D[pS]HEKRHHGYRRKFHEKHHSHREFPFYGDYGSNYLYDN-OH; N-terminus and C-terminus assumed) came in with a Ki of 239 nM. In test [2], the “% Rmax” value was 21% and the Kd turned out to be 2400 nM. Moreover, the “% Rmax” value in test [2] (listed as Hst1(1-38)) was “(% Rmax = 22%)”. For the same compound, the “effect of TMEM97 mutations on Hst1 binding” value in test [3] is recorded as “did not affect”. In test [4] (siRNA knock-down of TMEM97), the “transmigration response in TMEM97 KD cells” value is “inhibits; also recorded: abolished this response”. The cellular transmigration result in test [4] (toward 2% FBS stimulus) is reported as “dose-dependent increase in cellular transmigration”. Also, in the test with NPC1 patient fibroblasts, the “HMG-CoA reductase gene expression” value is listed as “reducing HMG-CoA reductase gene expression” and the NPC1 gene expression entry is “increasing NPC1 gene expression”. Besides, in test [5] (7-week-old NPC mouse model), the “ceramides (Cer NS, HexCer NS, SM)” value is “significantly increasing”; the “gangliosides (GM3, GM2 and GM1)” value is listed as “significantly increasing”. Moreover, the “phosphatidylinositol 4,5-bisphosphate (PIP2; 20:4/18:0) levels” value in test [5] (NPC1−/− mouse, 9-week-old) is given as “significantly decrease”.

As a reminder, the Ki is a dissociation constant, usually derived from enzyme kinetics or from competition with a known ligand. A low value points to a stronger hold on the target. One may read the Kd as a measure of binding affinity in units of concentration.

The record behind these values is patent US20230190870A1, “Method for Treating Lysosomal Storage Diseases with Histatin Peptides” (THE BOARD OF TRUSTEES OF THE UNIVERSITY OF ILLINOIS, priority 2020, published 2023).
